Data as given in patent publication US12459951B2, “Compounds that interact with RAS superfamily proteins for treatment of cancers, inflammatory diseases, rasopathies, and fibrotic disease” (SHY Therapeutics, LLC, priority 2022, dated 2025).
Where two headings read alike, the source gives them in different places.

Columns and labels:
[1] = system: Smad2/Smad3 phosphorylation; test: Phospho-Smad2/3 Inhibition Assay (western blot), Panc-1; format: cell-based, human; details: at 10 μM, Panc-1 pancreatic cancer cell line; starred symbols = activation
How it was run: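 Panc-1 cells (KRas G12D), starved overnight in 0.5% FBS, treated 3 h at 37° C with compound at 10 μM final (0.3% DMSO) or serial dilutions for IC50, then stimulated with 10 ng/ml TGF-b1 for 1 h. Phospho-Smad2 (Ser465/467) and phospho-Smad3 (Ser423/425) detected by western blot.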

TNF-alpha = TNF-alpha Quantification Assay (ELISA), LPS-stimulated RAW 264.7; format: cell-based; details: Mus musculus, RAW264.7; at 10 μM; read-out: TNFα: % inh.
IL6 = test: IL-6 Quantification Assay (ELISA), LPS-stimulated RAW 264.7; format: cell-based; set-up: inhibition: dose or concentration left out as unconfirmed; details: Mus musculus, RAW264.7; read-out: IL-6: % inh.
[2] = system: MiaPaca-2 (expressing KRAS G12C mutant); test: Proliferation Assay (Cell Viability Assay); format: cell-based; details: Homo sapiens, MIA PaCa-2
How it was run: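 MiaPaca-2 cells (KRAS G12C) were grown in DMEM-high glucose with 10% FBS, seeded at 2000–5000 cells/well and cultured overnight. Compounds were added at 10 μM final, or as serial dilutions for IC50, in 0.3% DMSO/10% FBS for 2–4 days at 37 °C, 5% CO2. Viability was measured with CellTiter 96 Aqueous One and % inhibition calculated.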

[3] = read-out: Proliferation in MiaPaca-2: IC50
[4] = Proliferation assay, MiaPaca-2, read-out: MiaPaca-2 IC50 (nM) Pancreatic

| SMILES | IC50 [2, 3] | IC50 [2, 4] | % inh of Smad2/3 phosphorylation in Panc-1 [1] | inhibition at 10 µM (TNF-alpha) | inhibition (IL6) |
| --- | --- | --- | --- | --- | --- |
| Cc1c(-c2ccn(C(C)C)n2)cn2nc(-c3nccn3C)nc(Nc3ncco3)c12 [Compound 60, N-(6-(1-Isopropyl-1H-pyrazol-3-yl)-5-methyl-2-(1-methyl-1H-imidazol-2-yl)pyrrolo[2,1-f][1,2,4]triazin-4-yl)oxazol-2-amine] | > 1000 nM | – | C (C = 46-75% inhibition) | 0% | 0% |
| COC1CCCN(c2nc(-c3ccccn3)nn3cc(-c4ccn(C(C)C)n4)c(-c4ccccc4)c23)C1 (racemic) [Compound 27, rac 6-(1-Isopropyl-1H-pyrazol-3-yl)-4-(3-methoxypiperidin-1-yl)-5-phenyl-2-(pyridin-2-yl)pyrrolo[2,1-f][1,2,4]triazine] | > 1000 nM | – | D (D = 76-100% inhibition) | 25 to 49% | 75 to 100% |
| Cc1c(-c2ccn(C)n2)cn2nc(-c3nccn3C)nc(Nc3cc[nH]n3)c12 [Compound 256, 5-Methyl-2-(1-methyl-1H-imidazol-2-yl)-6-(1-methyl-1H-pyrazol-3-yl)-N-(1H-pyrazol-3-yl)pyrrolo[2,1-f][1,2,4]triazin-4-amine] | > 1000 nM | – | D* (D* = 76-100% activation) | 0% | 50 to 74% |
| Cc1c(-c2ccn(C)n2)cn2nc(-c3nccn3C)nc(Nc3ccc(N4CCOCC4)cn3)c12 [Compound 247, 5-Methyl-2-(1-methyl-1H-imidazol-2-yl)-6-(1-methyl-1H-pyrazol-3-yl)-N-(5-morpholinopyridin-2-yl)pyrrolo[2,1-f][1,2,4]triazin-4-amine] | 510 to 1000 nM | – | C* (C* = 46-75% activation) | 50 to 74% | 75 to 100% |
| COc1cccc(-c2cn3nc(-c4nccn4C)nc(N[C@@H]4CC[C@@H](OC)C4)c3c2-c2ccccc2)c1F (racemic) [Compound 43, rac 6-(2-Fluoro-3-methoxyphenyl)-N-((1R,3R)-3-methoxycyclopentyl)-2-(1-methyl-1H-imidazol-2-yl)-5-phenylpyrrolo[2,1-f][1,2,4]triazin-4-amine] | > 1000 nM | – | D (D = 76-100% inhibition) | 1 to 24% | 25 to 49% |
| COCCCNc1nc(-c2nccn2C)nn2cc(-c3cccc(OC)c3Cl)c(-c3ccccc3)c12 [Compound 30, 6-(2-Chloro-3-methoxyphenyl)-N-(3-methoxypropyl)-2-(1-methyl-1H-imidazol-2-yl)-5-phenylpyrrolo[2,1-f][1,2,4]triazin-4-amine] | 510 to 1000 nM | – | D (D = 76-100% inhibition) | 75 to 100% | 75 to 100% |
| COc1cc(Nc2nc(-c3nccn3C)nn3cc(-c4ccn(C(C)C)n4)c(C)c23)n[nH]1 [Compound 51, 6-(1-Isopropyl-1H-pyrazol-3-yl)-N-(5-methoxy-1H-pyrazol-3-yl)-5-methyl-2-(1-methyl-1H-imidazol-2-yl)pyrrolo[2,1-f][1,2,4]triazin-4-amine] | > 1000 nM | – | D (D = 76-100% inhibition) | 25 to 49% | 50 to 74% |
| COCC1CCN(c2nc(-c3ccccn3)nn3cc(-c4ccn(C(C)C)n4)c(-c4ccccc4)c23)C1 (racemic) [Compound 25, rac 6-(1-Isopropyl-1H-pyrazol-3-yl)-4-(3-(methoxymethyl)pyrrolidin-1-yl)-5-phenyl-2-(pyridin-2-yl)pyrrolo[2,1-f][1,2,4]triazine] | > 1000 nM | – | 0 (0 = 0% inhibition) | 1 to 24% | 1 to 24% |
| COCCNc1nc(-c2nccn2C)nn2cc(-c3ccn(C(C)C)n3)c(C(C)C)c12 [Compound 35, 5-Isopropyl-6-(1-isopropyl-1H-pyrazol-3-yl)-N-(2-methoxyethyl)-2-(1-methyl-1H-imidazol-2-yl)pyrrolo[2,1-f][1,2,4]triazin-4-amine] | > 1000 nM | – | A (A = 1-25% inhibition) | 0% | 25 to 49% |

Second part, led by results:

| IC50 [2, 3] | IC50 [2, 4] | SMILES | % inh of Smad2/3 phosphorylation in Panc-1 [1] | inhibition at 10 µM (TNF-alpha) | inhibition (IL6) |
| --- | --- | --- | --- | --- | --- |
| < 150 nM | – | Cc1c(-c2ccn(C)n2)cn2nc(-c3nccn3C)nc(Nc3cc(-c4ccncc4)[nH]n3)c12 [Compound 266, 5-Methyl-2-(1-methyl-1H-imidazol-2-yl)-6-(1-methyl-1H-pyrazol-3-yl)-N-(5-(pyridin-4-yl)-1H-pyrazol-3-yl)pyrrolo[2,1-f][1,2,4]triazin-4-amine] | D* (D* = 76-100% activation) | 0% | 25 to 49% |
| < 150 nM | – | Cc1c(-c2ccn(C(C)C)n2)cn2nc(-c3nccn3C)nc(Nc3cc(C4CC4)n[nH]3)c12 [Compound 68, N-(3-Cyclopropyl-1H-pyrazol-5-yl)-6-(1-isopropyl-1H-pyrazol-3-yl)-5-methyl-2-(1-methyl-1H-imidazol-2-yl)pyrrolo[2,1-f][1,2,4]triazin-4-amine] | A* (A* = 1-25% activation) | 25 to 49% | 1 to 24% |
| < 150 nM | – | Cc1c(-c2ccn(C)n2)cn2nc(-c3nccn3C)nc(Nc3ccc(-c4ccccn4)cn3)c12 [Compound 249, N-([2,3′-Bipyridin]-6′-yl)-5-methyl-2-(1-methyl-1H-imidazol-2-yl)-6-(1-methyl-1H-pyrazol-3-yl)pyrrolo[2,1-f][1,2,4]triazin-4-amine] | 0 (0 = 0% inhibition) | 1 to 24% | 75 to 100% |
| < 150 nM | 1 to 10 nM | Cc1cc(Nc2nc(-c3nccn3C)nn3cc(-c4ccn(C)n4)c(C)c23)n[nH]1 [Compound 255, 5-Methyl-2-(1-methyl-1H-imidazol-2-yl)-6-(1-methyl-1H-pyrazol-3-yl)-N-(5-methyl-1H-pyrazol-3-yl)pyrrolo[2,1-f][1,2,4]triazin-4-amine] | D* (D* = 76-100% activation) | 1 to 24% | 50 to 74% |
| < 150 nM | 1 to 10 nM | Cc1[nH]nc(Nc2nc(-c3nccn3C)nn3cc(-c4ccn(C)n4)c(C)c23)c1C [Compound 267, N-(4,5-Dimethyl-1H-pyrazol-3-yl)-5-methyl-2-(1-methyl-1H-imidazol-2-yl)-6-(1-methyl-1H-pyrazol-3-yl)pyrrolo[2,1-f][1,2,4]triazin-4-amine] | B (B = 26-45% inhibition) | 1 to 24% | 50 to 74% |
| < 150 nM | 10 to 50 nM | COc1cc(Nc2nc(-c3nccn3C)nn3cc(-c4ccn(C)n4)c(C)c23)n[nH]1 [Compound 252, N-(5-Methoxy-1H-pyrazol-3-yl)-5-methyl-2-(1-methyl-1H-imidazol-2-yl)-6-(1-methyl-1H-pyrazol-3-yl)pyrrolo[2,1-f][1,2,4]triazin-4-amine] | B* (B* = 26-45% activation) | 0% | 1 to 24% |
| < 150 nM | – | COc1cc(Nc2nc(-c3nccn3C)nn3cc(-c4ccncc4)c(C)c23)ncn1 [Compound 49, N-(6-Methoxypyrimidin-4-yl)-5-methyl-2-(1-methyl-1H-imidazol-2-yl)-6-(pyridin-4-yl)pyrrolo[2,1-f][1,2,4]triazin-4-amine] | B (B = 26-45% inhibition) | 1 to 24% | 1 to 24% |
| 150 to 500 nM | – | Cc1c(-c2ccn(C)n2)cn2nc(-c3nccn3C)nc(Nc3cc(-n4ccnc4C)ccn3)c12 [Compound 246, 5-Methyl-N-(4-(2-methyl-1H-imidazol-1-yl)pyridin-2-yl)-2-(1-methyl-1H-imidazol-2-yl)-6-(1-methyl-1H-pyrazol-3-yl)pyrrolo[2,1-f][1,2,4]triazin-4-amine] | C* (C* = 46-75% activation) | 0% | 25 to 49% |
| 150 to 500 nM | – | Cc1c(-c2ccn(C)n2)cn2nc(-c3nccn3C)nc(Nc3cc(-c4cccnc4)[nH]n3)c12 [Compound 264, 5-Methyl-2-(1-methyl-1H-imidazol-2-yl)-6-(1-methyl-1H-pyrazol-3-yl)-N-(5-(pyridin-3-yl)-1H-pyrazol-3-yl)pyrrolo[2,1-f][1,2,4]triazin-4-amine] | A (A = 1-25% inhibition) | 25 to 49% | 75 to 100% |
| < 150 nM | – | CCn1ccc(-c2cn3nc(-c4nccn4C)nc(Nc4cc(OC)ncn4)c3c2C)n1 [Compound 64, 6-(1-Ethyl-1H-pyrazol-3-yl)-N-(6-methoxypyrimidin-4-yl)-5-methyl-2-(1-methyl-1H-imidazol-2-yl)pyrrolo[2,1-f][1,2,4]triazin-4-amine] | A (A = 1-25% inhibition) | 0% | 1 to 24% |
| < 150 nM | – | Cc1c(-c2ccn(C)n2)cn2nc(-c3nccn3C)nc(Nc3cc(-c4ccccn4)[nH]n3)c12 [Compound 265, 5-Methyl-2-(1-methyl-1H-imidazol-2-yl)-6-(1-methyl-1H-pyrazol-3-yl)-N-(5-(pyridin-2-yl)-1H-pyrazol-3-yl)pyrrolo[2,1-f][1,2,4]triazin-4-amine] | A (A = 1-25% inhibition) | 25 to 49% | 75 to 100% |
